In ChEMBL document CHEMBL6153165, “Clozapine as an E3 Ligand for PROTAC Technology” (ACS Med Chem Lett, 2025):
The source made the active and inactive calls. No cut-off for these calls is given here.

Legend:
MCF7 [1] = test: Induction of ER-alpha degradation (unknown origin) at 30 uM by measuring ER-alpha to beta actin ratio incubated for 24 hrs Western blotting analysis (reference value: 100%); format: cell-based; settings: Homo sapiens
HEK293 [2] = test: PROTAC activity at E3-ubiquitin ligase/Halo-tagged Brazilian click beetle Emerald luciferase expressed in human HEK293 cells assessed as decrease in Halo-ELuc protein level pretreated with compound followed by 1-chlorohexane addition and measured after 24 hrs by competitive assay; format: cell-based
HEK293 [3] = test: (§1) PROTAC activity at E3-ubiquitin ligase/Halo-tagged Brazilian click beetle Emerald luciferase expressed in human HEK293 cells assessed as decrease in Halo-ELuc protein level by measuring Halo-Eluc to beta-actin ratio at 0.1 uM incubated for 24 hrs by luciferase based Western blotting analysis (reference value: 100%); format: cell-based; set-up: scale not given: the % may be the effect or the level left
HEK293 [4] = test: as §1, with “0.01” for “0.1”; format: cell-based; set-up: scale not given: the % may be the effect or the level left
HEK293 [5] = test: PROTAC activity at E3-ubiquitin ligase/Halo-tagged Brazilian click beetle Emerald luciferase expressed in human HEK293 cells assessed as decrease in Halo-ELuc protein level pretreated with 1-chlorohexane for 2 hrs followed by compound addition and measured after 24 hrs by competitive assay; format: cell-based
HEK293 [6] = test: as §1, with “20” for “0.1”; format: cell-based; set-up: scale not given: the % may be the effect or the level left
HEK293 [7] = test: as §1, with “10” for “0.1”; format: cell-based; set-up: scale not given: the % may be the effect or the level left
HEK293 [8] = test: as §1, with “1” for “0.1”; format: cell-based; set-up: scale not given: the % may be the effect or the level left
MCF7 [9] = test: Induction of ER-alpha degradation (unknown origin) at 30 uM in presence of 4-OHT by measuring ER-alpha to beta actin ratio incubated for 24 hrs Western blotting analysis (reference value: 100%); format: cell-based; settings: Homo sapiens
MCF7 [10] = test: PROTAC activity at E3-ubiquitin ligase/ER-alpha expressed in UBR4 knockdown human MCF7 cells assessed as induction of ER-alpha degradation by measuring ER-alpha to beta actin ratio at 30 uM incubated for 24 hrs by Western blotting analysis (reference value: 16%); format: cell-based
MCF7 [11] = test: PROTAC activity at E3-ubiquitin ligase/ER-alpha expressed in human MCF7 cells assessed as decrease in ER-alpha protein level by measuring […] at 30 uM incubated for 24 hrs by Western blotting analysis (reference value: 100%); format: cell-based; set-up: scale not given: the % may be the effect or the level left
MCF7 [12] = test: PROTAC activity at E3-ubiquitin ligase/ER-alpha expressed in UBR5 knockdown human MCF7 cells assessed as induction of ER-alpha degradation by measuring ER-alpha to beta actin ratio at 100 uM incubated for 24 hrs by Western blotting analysis (reference value: 41%); format: cell-based
MCF7 [13] = test: PROTAC activity at E3-ubiquitin ligase/ER-alpha expressed in human MCF7 cells assessed as decrease in ER-alpha protein level by measuring […] at 0.1 uM incubated for 24 hrs by Western blotting analysis (reference value: 100%); format: cell-based; set-up: scale not given: the % may be the effect or the level left
MCF7 [14] = test: PROTAC activity at E3-ubiquitin ligase/ER-alpha expressed in human MCF7 cells assessed as decrease in ER-alpha protein level by measuring […] at 10 uM incubated for 24 hrs by Western blotting analysis (reference value: 100%); format: cell-based; set-up: scale not given: the % may be the effect or the level left
MCF7 [15] = test: PROTAC activity at E3-ubiquitin ligase/ER-alpha expressed in human MCF7 cells assessed as induction of ER-alpha degradation incubated for 24 hrs in presence of MG132 by measuring ER-alpha to beta actin ratio at 100 uM by Western blotting analysis (reference value: 100%); format: cell-based
MCF7 [16] = test: PROTAC activity at E3-ubiquitin ligase/ER-alpha expressed in UBR2 knockdown human MCF7 cells assessed as induction of ER-alpha degradation by measuring ER-alpha to beta actin ratio at 100 uM incubated for 24 hrs by Western blotting analysis (reference value: 100%); format: cell-based
MCF7 [17] = test: PROTAC activity at E3-ubiquitin ligase/ER-alpha expressed in human MCF7 cells assessed as induction of ER-alpha degradation incubated for 24 hrs by measuring ER-alpha to beta actin ratio at 30 uM by Western blotting analysis (reference value: 100%); format: cell-based
MCF7 [18] = test: PROTAC activity at E3-ubiquitin ligase/ER-alpha expressed in human MCF7 cells assessed as induction of ER-alpha degradation by measuring ER-alpha to beta actin ratio at 30 uM incubated for 24 hrs by Western blotting analysis (reference value: 100%); format: cell-based
MCF7 [19] = test: PROTAC activity at E3-ubiquitin ligase/ER-alpha expressed in human MCF7 cells assessed as decrease in ER-alpha protein level by measuring […] at 0.03 uM incubated for 24 hrs by Western blotting analysis (reference value: 100%); format: cell-based; set-up: scale not given: the % may be the effect or the level left
MCF7 [20] = test: PROTAC activity at E3-ubiquitin ligase/ER-alpha expressed in human MCF7 cells assessed as induction of ER-alpha degradation incubated for 24 hrs in presence of MLN7243 by measuring ER-alpha to beta actin ratio at 30 uM by Western blotting analysis (reference value: 100%); format: cell-based
MCF7 [21] = test: PROTAC activity at E3-ubiquitin ligase/ER-alpha expressed in human MCF7 cells assessed as decrease in ER-alpha protein level by measuring […] at 100 uM incubated for 24 hrs by Western blotting analysis (reference value: 100%); format: cell-based; set-up: scale not given: the % may be the effect or the level left
MCF7 [22] = test: Antiproliferative activity against human MCF7 cells assessed as inhibition of cell viability; format: functional, cell-based; settings: dose 1-100 µM
MCF7 [23] = test: PROTAC activity at E3-ubiquitin ligase/ER-alpha expressed in UBR5 knockdown human MCF7 cells assessed as induction of ER-alpha degradation by measuring ER-alpha to beta actin ratio at 30 uM incubated for 24 hrs by Western blotting analysis (reference value: 16%); format: cell-based
MCF7 [24] = test: PROTAC activity at E3-ubiquitin ligase/ER-alpha expressed in UBR1 knockdown human MCF7 cells assessed as induction of ER-alpha degradation by measuring ER-alpha to beta actin ratio at 30 uM incubated for 24 hrs by Western blotting analysis (reference value: 100%); format: cell-based
MCF7 [25] = test: PROTAC activity at E3-ubiquitin ligase/ER-alpha expressed in human MCF7 cells assessed as induction of ER-alpha degradation incubated for 24 hrs in presence of MLN7243 by measuring ER-alpha to beta actin ratio at 100 uM by Western blotting analysis (reference value: 100%); format: cell-based
MCF7 [26] = test: PROTAC activity at E3-ubiquitin ligase/ER-alpha expressed in human MCF7 cells assessed as decrease in ER-alpha protein level by measuring […] at 0.3 uM incubated for 24 hrs by Western blotting analysis (reference value: 100%); format: cell-based; set-up: scale not given: the % may be the effect or the level left
MCF7 [27] = test: PROTAC activity at E3-ubiquitin ligase/ER-alpha expressed in human MCF7 cells assessed as decrease in ER-alpha protein level by measuring […] at 3 uM incubated for 24 hrs by Western blotting analysis(reference value: 100%); format: cell-based; set-up: scale not given: the % may be the effect or the level left
MCF7 [28] = test: PROTAC activity at E3-ubiquitin ligase/ER-alpha expressed in UBR1 knockdown human MCF7 cells assessed as induction of ER-alpha degradation by measuring ER-alpha to beta actin ratio at 100 uM incubated for 24 hrs by Western blotting analysis (reference value: 100%); format: cell-based
MCF7 [29] = test: PROTAC activity at E3-ubiquitin ligase/ER-alpha expressed in human MCF7 cells assessed as decrease in ER-alpha protein level by measuring […] at 1 uM incubated for 24 hrs by Western blotting analysis (reference value: 100%); format: cell-based; set-up: scale not given: the % may be the effect or the level left
MCF7 [30] = test: PROTAC activity at E3-ubiquitin ligase/ER-alpha expressed in human MCF7 cells assessed as induction of ER-alpha degradation incubated for 24 hrs in presence of MG132 by measuring ER-alpha to beta actin ratio at 30 uM by Western blotting analysis (reference value: 100%); format: cell-based
MCF7 [31] = test: PROTAC activity at E3-ubiquitin ligase/ER-alpha expressed in human MCF7 cells assessed as induction of ER-alpha degradation incubated for 24 hrs by measuring ER-alpha to beta actin ratio at 100 uM by Western blotting analysis (reference value: 100%); format: cell-based
MCF7 [32] = test: PROTAC activity at E3-ubiquitin ligase/ER-alpha expressed in UBR4 knockdown human MCF7 cells assessed as induction of ER-alpha degradation by measuring ER-alpha to beta actin ratio at 100 uM incubated for 24 hrs by Western blotting analysis (reference value: 41%); format: cell-based
MCF7 [33] = test: PROTAC activity at E3-ubiquitin ligase/ER-alpha expressed in human MCF7 cells assessed as induction of ER-alpha degradation by measuring ER-alpha to beta actin ratio at 100 uM incubated for 24 hrs by Western blotting analysis (reference value: 100%); format: cell-based
MCF7 [34] = test: PROTAC activity at E3-ubiquitin ligase/ER-alpha expressed in UBR2 knockdown human MCF7 cells assessed as induction of ER-alpha degradation by measuring ER-alpha to beta actin ratio at 30 uM incubated for 24 hrs by Western blotting analysis (reference value: 100%); format: cell-based
MCF7 [35] = test: PROTAC activity at E3-ubiquitin ligase/ER-alpha expressed in human MCF7 cells assessed as decrease in ER-alpha protein level by measuring ER-alpha to beta actin ratio at 30 uM incubated for 24 hrs Western blotting analysis (reference value: 100%); format: cell-based; set-up: scale not given: the % may be the effect or the level left

Structure (SMILES): CC/C(=C(\c1ccc(O)cc1)c1ccc(OCCN(C)C)cc1)c1ccccc1
- Activity (MCF7 [1]): 116%

Structure (SMILES): ClCCCCCCOCCOCCN1CCN(C2=Nc3cc(Cl)ccc3Nc3ccccc32)CC1
- Activity (HEK293 [2]): Not active; Complete Recovery Of Luminescence Not Observed
- Activity (HEK293 [3]): 97%
- Activity (HEK293 [4]): 103%
- Activity (HEK293 [5]): inactive
- Activity (HEK293 [6]): 22%
- Activity (HEK293 [7]): 32%
- Activity (HEK293 [8]): 57%

Structure (SMILES): CN1CCN(C2=Nc3cc(Cl)ccc3Nc3ccccc32)CC1
- Activity (MCF7 [1]): 104%
- Activity (MCF7 [9]): 91%

Structure (SMILES): CC/C(=C(/c1ccc(O)cc1)c1ccc(OCCN(C)C(=O)CCC(=O)NCCOCCOCCOCCN2CCN(C3=Nc4cc(Cl)ccc4Nc4ccccc43)CC2)cc1)c1ccccc1
- Activity (MCF7 [10]): 1%
- Activity (MCF7 [11]): 42%
- Activity (MCF7 [12]): 51%
- Activity (MCF7 [13]): 132%
- Activity (MCF7 [14]): 116%
- Activity (MCF7 [15]): 152%
- Activity (MCF7 [16]): 40%
- Activity (MCF7 [17]): 51%
- Activity (MCF7 [18]): 16%
- Activity (MCF7 [19]): 122%
- Activity (MCF7 [20]): 121%
- Activity (MCF7 [21]): 33%
- Activity (MCF7 [22]): Dose-dependent-effect
- Activity (MCF7 [23]): 45%
- Activity (MCF7 [24]): 14%
- Activity (MCF7 [25]): 104%
- Activity (MCF7 [26]): 148%
- Activity (MCF7 [27]): 160%
- Activity (MCF7 [28]): 28%
- Activity (MCF7 [29]): 160%
- Activity (MCF7 [30]): 163%
- Activity (MCF7 [31]): 27%
- Activity (MCF7 [32]): 21%
- Activity (MCF7 [33]): 41%
- Activity (MCF7 [34]): 27%
- Activity (MCF7 [35]): 37%
